Laboratory results from paper PMC4810081, “Venetoclax (ABT-199) Might Act as a Perpetrator in Pharmacokinetic Drug–Drug Interactions” (Pharmaceutics, 2016).

Experiments:
SLCO1B1 = experiment: Induction assay, SLCO1B1 mRNA by real-time RT-PCR in LS180 cells; assay type: in vitro ADME, human; details: four days, at 5 µM
Experimental: LS180 cells. The human colon adenocarcinoma cell line LS180 (available at ATCC, Manassas, VA, USA) is one of the standard models for investigating pregnane X receptor (PXR) and aryl hydrocarbon receptor (AhR) mediated induction and was thus used for induction experiments. Cells were cultured under standard cell culture conditions with DMEM supplemented with 10% FCS, 2 mM of glutamine, 100 U/mL of penicillin, 100 µg/mL of streptomycin sulfate, and 0.1 mM of nonessential amino acids.
For the induction experiments, LS180 cells were seeded in 75 cm^2 culturing flasks and incubated for three days. […]
RNA was isolated using the GenElute™ Mammalian Total RNA Miniprep Kit, and cDNA was synthesized with the RevertAid™ H Minus First Strand cDNA Synthesis Kit according to the manufacturer's instructions. mRNA expression was quantified by real-time RT-PCR with the LightCycler® 480 (Roche Applied Science, Mannheim, Germany) as described previously. […] Data were evaluated via calibrator-normalized relative quantification with efficiency correction using the LightCycler® 480 software version 1.5 (Roche Applied Science, Mannheim, Germany). […] The following target genes were quantified: CYP1A1, CYP1A2, CYP3A4, ABCB1, ABCC2, ABCG2, SLCO1B1 (coding for OATP1B1), UDP-glucuronosyltransferase 1A3 (UGT1A3), and UGT1A9.

OATP1B3 = target: T1, OATP1B3 (Homo sapiens, UniProt Q9NPD5); experiment: OATP1B3 inhibition, 8-FcA uptake in HEK-OATP1B3 cells; assay type: in vitro ADME
T1 construct: expressed in transfected cells; host or cells: HEK293 (HEK-OATP1B3; gift of D. Keppler)
Experimental: HEK293 cells. For assessing inhibition of OATP1B1 and OATP1B3, the human embryonic kidney cell line HEK293 stably transfected with OATP1B1 (HEK-OATP1B1), OATP1B3 (HEK-OATP1B3), or the empty control vector (HEK293-VCG418) were used. Cells were cultured under standard cell culture conditions with DMEM supplemented with 10% FCS, 2 mM of glutamine, 100 U/mL of penicillin, 100 µg/mL of streptomycin sulfate, and 800 µg/mL of G418 to maintain over-expression. Cells were kindly provided by D. Keppler (German Cancer Research Centre, Heidelberg, Germany).
Inhibition of OATP1B1 and OATP1B3 was analyzed in HEK-OATP1B1 and HEK-OATP1B3 cells by quantifying the uptake of the fluorescent substrate 8-FcA by flow cytometry as described previously. HEK293-VCG418 cells were used as a control. Inhibition of OATPs leads to a reduced uptake of 8-FcA into the cells. Each experiment was performed at least in triplicate, and venetoclax was tested from 0.05 up to 100 µM.

AhR = system: T2, AhR; experiment: AhR reporter gene assay in AZ-AHR cells; assay type: cell-based, human; details: 24 h, up to 10 µM
T2 construct: endogenous in cells; host or cells: AZ-AHR (HepG2 with stably integrated AhR-responsive luciferase reporter; gift of Z. Dvorak)
Experimental: AZ-AHR cells. The human hepatoma cell line HepG2 stably transfected with a construct containing several AhR binding sites upstream of luciferase reporter gene was used to investigate whether venetoclax can activate AhR. Cells were kindly provided by Z. Dvorak (Palacky University, Olomouc, Czech Republic).
To test whether the induction of CYP1A1 or UGTs can be attributed to AhR activation by venetoclax, an AhR reporter gene assay was applied. 60,000 AZ-AhR cells were seeded into each well of 96-well plates with clear bottom and clear lid for luminometry. After incubation for 24 h, cells were treated in triplicate with venetoclax (0.1–10 µM) or vehicle control (0.2% DMSO) for a further 24 h. The assay was performed with the Steady-Glo™ Luciferase Assay System according to the manufacturer’s instructions. Drug-induced increases of AhR receptor activity were normalized to activity of non-drug treated controls, which was set to 1 (= 100%). The experiment was performed in triplicate.

T1 sequence (Q9NPD5 whole entry): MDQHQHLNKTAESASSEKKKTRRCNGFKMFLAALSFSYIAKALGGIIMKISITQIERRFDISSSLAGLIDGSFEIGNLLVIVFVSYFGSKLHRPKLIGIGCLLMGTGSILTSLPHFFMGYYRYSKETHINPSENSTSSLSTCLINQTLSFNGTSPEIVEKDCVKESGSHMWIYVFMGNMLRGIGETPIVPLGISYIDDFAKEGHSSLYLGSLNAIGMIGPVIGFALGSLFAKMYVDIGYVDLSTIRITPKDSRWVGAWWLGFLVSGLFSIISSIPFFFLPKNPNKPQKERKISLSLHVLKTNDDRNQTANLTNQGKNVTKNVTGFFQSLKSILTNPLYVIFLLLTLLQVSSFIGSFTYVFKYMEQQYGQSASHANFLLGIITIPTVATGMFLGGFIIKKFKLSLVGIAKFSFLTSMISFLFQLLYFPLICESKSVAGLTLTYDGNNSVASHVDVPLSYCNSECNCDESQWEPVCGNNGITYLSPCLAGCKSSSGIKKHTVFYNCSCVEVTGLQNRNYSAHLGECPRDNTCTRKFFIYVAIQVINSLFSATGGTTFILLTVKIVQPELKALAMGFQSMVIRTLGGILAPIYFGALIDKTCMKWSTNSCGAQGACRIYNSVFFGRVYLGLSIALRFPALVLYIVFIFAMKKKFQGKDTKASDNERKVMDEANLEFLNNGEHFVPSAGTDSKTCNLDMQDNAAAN

## CC1(C)CCC(CN2CCN(c3ccc(C(=O)NS(=O)(=O)c4ccc(NCC5CCOCC5)c([N+](=O)[O-])c4)c(Oc4cnc5[nH]ccc5c4)c3)CC2)=C(c2ccc(Cl)cc2)C1 [Venetoclax]
SLCO1B1
  mRNA expression of SLCO1B1: suppressed
OATP1B3
  IC50: 26 ± 9.6 µM
AhR
  luciferase activity in the AhR reporter gene assay: did not increase
